{
  "source": "patent US11192913B2",
  "about": "“C-glycoside amine derivatives and methods of making” (The United States of America, as Represented by the …, priority 2020, dated 2021)",
  "key": {"Streptococcus mutans": {"tested_on": "Streptococcus mutans", "settings": "Watanabe et al. 2000; cited from earlier work"}, "Bacillus subtilis": {"tested_on": "Bacillus subtilis", "settings": "Zhao et al. 2015; cited from earlier work"}, "Escherichia coli [1]": {"tested_on": "Escherichia coli", "settings": "Zhao et al. 2015; cited from earlier work"}, "[2]": {"tested_on": "all gram positive organisms tested", "settings": "against all gram positive organisms tested", "experimental": "(§1) When surfactants are used in detergent formulations, antibiotic activity is an important trait. The antibiotic activity of the surfactants prepared from the saccharides glucose, maltose, and lactose, and 2-undecanone were measured against several microorganisms of interest in the food, human health, and agricultural areas. […] The CMC values for the β-C-glycoside 2-aminoundecanes were 0.1-5.5 mM.\n(§2) Summary: β-C-glycoside ketone derivatives of saccharides glucose, lactose, and maltose were converted to amines via a reductive amination using 2 wt % Rh/HMS (Rh/C or Rh/Al2O3 can be used) in ammoniacal methanol under about 500 psi H2 (pressure can be about 350 psi). The amines were isolated and then these molecules were used as the amine in the reductive amination of 2-undecanone prepared from the seed oil of Cuphea. The resulting β-C-glycoside 2-aminoundecanes were characterized by MALDI-TOF mass spectrometry, 2D nmr, and CHN analyses. The detergency of the products was measured by fluorescence detection to measure the critical micelle concentration."}, "Envinia amylovora": {"tested_on": "Envinia amylovora", "assay": "Antimicrobial activity", "format": "cell-based", "settings": "gram negative Erwinia", "experimental": "as §1, §2"}, "Escherichia coli [3]": {"tested_on": "Escherichia coli", "assay": "Antimicrobial activity", "format": "cell-based", "settings": "gram negative Escherichia", "experimental": "as §1, §2"}, "B. cereus": {"tested_on": "B. cereus", "settings": "Staron et al. 2018; cited from earlier work"}},
  "note": "Where two headings read alike, the source gives them in different places.",
  "data": [
    {"compound": "Galactose laurate", "values": [
      {"measurement": "MIC", "setting": "Streptococcus mutans", "result": 0.14, "unit": "mM"}
    ]},
    {"compound": "sucrose caprate", "values": [
      {"measurement": "MIC", "setting": "Bacillus subtilis", "result": 2.5, "unit": "mM"},
      {"measurement": "MIC", "setting": "Escherichia coli [1]", "result": 10, "unit": "mM"}
    ]},
    {"compound": "CCCCCCCCCC(C)NC(C)C[C@@H]1O[C@H](CO)[C@@H](O)[C@H](O)[C@H]1O", "note": "(some centres unmarked) [glucose derivative, Glucose C-glycoside 2-aminoundecane]", "values": [
      {"measurement": "minimum bactericide concentration", "setting": "[2]", "result": 0.62, "unit": "mM"},
      {"measurement": "minimum inhibitory concentration", "setting": "[2]", "result": 0.31, "unit": "mM"},
      {"measurement": "MIC", "setting": "Envinia amylovora", "result": 0.62, "unit": "mM"},
      {"measurement": "MIC", "setting": "Escherichia coli [3]", "result": 0.62, "unit": "mM"}
    ]},
    {"compound": "dodecanoyl lactose", "values": [
      {"measurement": "MIC", "setting": "B. cereus", "result": 5.9, "unit": "mM"}
    ]}
  ]
}
